Reference: ChEMBL document CHEMBL1201862, “PubChem BioAssay data set” (2004)
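Dose response: 5 concentrations. Exposure: 48 h. Format: 96-well plates. Endpoint: linear interpolation; highest concentration if not reached. Abbreviation: GI50, concentration required for 50% inhibition of growth.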 Active and inactive are the calls of the source. Rule as the data show it: active = GI50 up to about 1.1 µM and inactive = higher.

Experiments:
Assay in all cases: NCI anticancer screen, dose series, 48 h
Malme-3M = tested on: Malme-3M
SNB-19 = tested on: SNB-19
SK-MEL-5 = tested on: SK-MEL-5
SR = tested on: SR
BT-549 = tested on: BT-549
MOLT-4 = tested on: MOLT-4
SK-MEL-2 = tested on: SK-MEL-2
OVCAR-3 = tested on: OVCAR-3
OVCAR-5 = tested on: OVCAR-5
IGROV-1 = tested on: IGROV-1
EKVX = tested on: EKVX
OVCAR-8 = tested on: OVCAR-8
A498 = tested on: A498
786-0 = tested on: 786-0
NCI-H460 = tested on: NCI-H460
CCRF-CEM = tested on: CCRF-CEM
HCT-116 = tested on: HCT-116
RPMI-8226 = tested on: RPMI-8226
MDA-MB-231 = tested on: MDA-MB-231
TK-10 = tested on: TK-10
K562 = tested on: K562
SF-539 = tested on: SF-539
CAKI-1 = tested on: CAKI-1
PC-3 = tested on: PC-3
RXF 393 = tested on: RXF 393
HCT-15 = tested on: HCT-15
U-251 = tested on: U-251
MDA-MB-435 = tested on: MDA-MB-435
M14 = tested on: M14
ACHN = tested on: ACHN
UACC-257 = tested on: UACC-257
OVCAR-4 = tested on: OVCAR-4
A549 = tested on: A549
HL-60 = tested on: HL-60
NCI-H522 = tested on: NCI-H522
MCF7 = tested on: MCF7
UO-31 = tested on: UO-31
HCC 2998 = tested on: HCC 2998
SN12C = tested on: SN12C
SK-OV-3 = tested on: SK-OV-3
LOX IMVI = tested on: LOX IMVI
MDA-N = tested on: MDA-N
COLO 205 = tested on: COLO 205
SK-MEL-28 = tested on: SK-MEL-28
NCI-H23 = tested on: NCI-H23
DU-145 = tested on: DU-145
NCI/ADR-RES = tested on: NCI/ADR-RES
SF-295 = tested on: SF-295
KM12 = tested on: KM12
UACC-62 = tested on: UACC-62
Hs-578T = tested on: Hs-578T
NCI-H226 = tested on: NCI-H226
HT-29 = tested on: HT-29
HOP-62 = tested on: HOP-62
SF-268 = tested on: SF-268
SW-620 = tested on: SW-620
SNB-75 = tested on: SNB-75
T47D = tested on: T47D
HOP-92 = tested on: HOP-92

In the case of `CCOC1NC(/N=C/c2ccc(OC)cc2)=C(C#N)C1C#N` (configuration not stated), the GI50 (Malme-3M) is reported as 90.8 µM (inactive), the GI50 (SNB-19) is reported as 87.3 µM (inactive) and the GI50 (SK-MEL-5) is reported as 38.6 µM (inactive). The GI50 (SR) was 30 µM (inactive), the GI50 (BT-549) was 19.9 µM (inactive) and the GI50 (MOLT-4) was 92 µM (inactive). For the same molecule, the GI50 (SK-MEL-2) was 29.9 µM (inactive), the GI50 (OVCAR-3) was > 100 µM (inactive) and the GI50 (OVCAR-5) was 87.5 µM (inactive). The GI50 (IGROV-1) was > 100 µM (inactive), the GI50 (EKVX) was 92 µM (inactive) and the GI50 (OVCAR-8) was > 100 µM (inactive). For the same molecule, the GI50 (A498) was > 100 µM (inactive), the GI50 (786-0) was > 100 µM (inactive) and the GI50 (NCI-H460) was > 100 µM (inactive). For the same molecule, the GI50 (CCRF-CEM) was 26.7 µM (inactive), the GI50 (HCT-116) was 63.1 µM (inactive) and the GI50 (RPMI-8226) was 46.7 µM (inactive). The GI50 (MDA-MB-231) was 64.6 µM (inactive), the GI50 (TK-10) was > 100 µM (inactive) and the GI50 (K562) was 31 µM (inactive). For the same molecule, the GI50 (SF-539) was 93.8 µM (inactive), the GI50 (CAKI-1) was > 100 µM (inactive) and the GI50 (PC-3) was 46 µM (inactive). The GI50 (RXF 393) was 34.5 µM (inactive), the GI50 (HCT-15) was 99.3 µM and the GI50 (U-251) was > 100 µM (inactive). For the same molecule, the GI50 (MDA-MB-435) was 40.6 µM (inactive), the GI50 (M14) was > 100 µM (inactive) and the GI50 (ACHN) was > 100 µM (inactive). The GI50 (UACC-257) was 65.5 µM (inactive), the GI50 (OVCAR-4) was 18.4 µM (inactive) and the GI50 (A549) was > 100 µM (inactive). For the same molecule, the GI50 (HL-60) was 37.5 µM (inactive), the GI50 (NCI-H522) was 19.3 µM (inactive) and the GI50 (MCF7) was > 100 µM (inactive). For the same molecule, the GI50 (UO-31) was > 100 µM (inactive), the GI50 (HCC 2998) was > 100 µM (inactive) and the GI50 (SN12C) was > 100 µM (inactive). The GI50 (SK-OV-3) was 80.4 µM (inactive), the GI50 (LOX IMVI) was 44.6 µM (inactive) and the GI50 (MDA-N) was 49.2 µM (inactive). The GI50 (COLO 205) was 75.3 µM (inactive), the GI50 (SK-MEL-28) was > 100 µM (inactive) and the GI50 (NCI-H23) was 46 µM (inactive). The GI50 (DU-145) was > 100 µM (inactive), the GI50 (NCI/ADR-RES) was > 100 µM (inactive) and the GI50 (SF-295) was > 100 µM (inactive). The GI50 (KM12) was 64.6 µM (inactive), the GI50 (UACC-62) was 32.9 µM (inactive) and the GI50 (Hs-578T) was 47.5 µM (inactive). The GI50 (NCI-H226) was > 100 µM (inactive), the GI50 (HT-29) was > 100 µM (inactive) and the GI50 (HOP-62) was > 100 µM (inactive). For the same molecule, the GI50 (SF-268) was 97.5 µM (inactive) and the GI50 (SW-620) was 50.9 µM (inactive).

`COc1cc(/C=C2\C(=O)N(c3cccc([N+](=O)[O-])c3)C(c3ccccc3)S2(=O)=O)cc(OC)c1OC` (configuration not stated) was tested, and the GI50 (Malme-3M) was > 100 µM (inactive), the GI50 (SNB-19) was > 100 µM (inactive) and the GI50 (SK-MEL-5) was > 100 µM (inactive). The GI50 (SR) was 37.2 µM (inactive), the GI50 (BT-549) was > 100 µM (inactive) and the GI50 (MOLT-4) was 74 µM (inactive). The GI50 (SK-MEL-2) was > 100 µM (inactive), the GI50 (OVCAR-3) was > 100 µM (inactive) and the GI50 (OVCAR-5) was > 100 µM (inactive). The GI50 (IGROV-1) was > 100 µM (inactive), the GI50 (EKVX) was > 100 µM (inactive) and the GI50 (OVCAR-8) was > 100 µM (inactive). The GI50 (A498) was > 100 µM (inactive), the GI50 (786-0) was > 100 µM (inactive) and the GI50 (NCI-H460) was > 100 µM (inactive). For the same molecule, the GI50 (CCRF-CEM) was 62.2 µM (inactive), the GI50 (HCT-116) was > 100 µM (inactive) and the GI50 (RPMI-8226) was 64.9 µM (inactive). The GI50 (MDA-MB-231) was > 100 µM (inactive), the GI50 (SNB-75) was > 100 µM (inactive) and the GI50 (TK-10) was > 100 µM (inactive). For the same molecule, the GI50 (K562) was 49.4 µM (inactive), the GI50 (CAKI-1) was > 100 µM (inactive) and the GI50 (PC-3) was > 100 µM (inactive). For the same molecule, the GI50 (RXF 393) was > 100 µM (inactive), the GI50 (HCT-15) was > 100 µM and the GI50 (U-251) was > 100 µM (inactive). For the same molecule, the GI50 (MDA-MB-435) was 32.3 µM (inactive), the GI50 (T47D) was 63.7 µM (inactive) and the GI50 (M14) was > 100 µM (inactive). The GI50 (ACHN) was > 100 µM (inactive), the GI50 (UACC-257) was > 100 µM (inactive) and the GI50 (OVCAR-4) was 80 µM (inactive). The GI50 (HOP-92) was > 100 µM (inactive), the GI50 (A549) was > 100 µM (inactive) and the GI50 (HL-60) was 84.7 µM (inactive). The GI50 (NCI-H522) was > 100 µM (inactive), the GI50 (MCF7) was 39.7 µM (inactive) and the GI50 (UO-31) was > 100 µM (inactive). The GI50 (HCC 2998) was > 100 µM (inactive), the GI50 (SN12C) was > 100 µM (inactive) and the GI50 (SK-OV-3) was > 100 µM (inactive). For the same molecule, the GI50 (LOX IMVI) was > 100 µM (inactive), the GI50 (MDA-N) was 31.1 µM (inactive) and the GI50 (COLO 205) was > 100 µM (inactive). The GI50 (SK-MEL-28) was > 100 µM (inactive), the GI50 (NCI-H23) was > 100 µM (inactive) and the GI50 (DU-145) was > 100 µM (inactive). The GI50 (NCI/ADR-RES) was > 100 µM (inactive), the GI50 (SF-295) was 97.5 µM (inactive) and the GI50 (KM12) was 92.7 µM (inactive). For the same molecule, the GI50 (UACC-62) was 80.7 µM (inactive), the GI50 (NCI-H226) was > 100 µM (inactive) and the GI50 (HT-29) was > 100 µM (inactive). For the same molecule, the GI50 (HOP-62) was > 100 µM (inactive) and the GI50 (SW-620) was 94.4 µM (inactive).
